Experimental data taken from PubChem BioAssay AID248 (DTP/NCI, 2004).
Values joined by “and” are separate entries in the source; they are usually repeats but may differ in a detail not shown here. Equal values may be shown once. Inconclusive results and toxic doses are left out.

System: L1210 leukemia ip in BDF1 mice, survival T/C
Test: NCI In Vivo Anticancer Drug Screen. Data for tumor model L1210 Leukemia (intraperitoneal) in B6D2F1 (BDF1) mice
Settings: higher = longer survival
Procedure, shortened: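 Transplanted-tumor mice were given test agent; controls received vehicle only. Survival readings from the two groups were divided (treated over control).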

SMILES: CN(N=O)C(N)=O
- T/C (endpoint: mean survival time, dose: 0.35 mg/kg/injection, schedule: Q01DX Z (sc), vehicle: steriod suspending solution): 103 % of control
- T/C (endpoint: mean survival time, dose: 0.55 mg/kg/injection, schedule: Q01DX Z (sc), vehicle: steriod suspending solution): 97 % of control
- T/C (endpoint: mean survival time, dose: 0.83 mg/kg/injection, schedule: Q01DX Z (sc), vehicle: steriod suspending solution): 100 % of control
- T/C (endpoint: mean survival time, dose: 0.92 mg/kg/injection, schedule: Q01DX Z (oral), vehicle: steriod suspending solution): 98 % of control
- T/C (endpoint: mean survival time, dose: 1.25 mg/kg/injection, schedule: Q01DX Z (sc), vehicle: steriod suspending solution): 103 % of control
- T/C (endpoint: mean survival time, dose: 1.38 mg/kg/injection, schedule: Q01DX Z (oral), vehicle: steriod suspending solution): 106 % of control
- T/C (endpoint: mean survival time, dose: 2.08 mg/kg/injection, schedule: Q01DX Z (oral), vehicle: steriod suspending solution): 107 % of control
- T/C (endpoint: mean survival time, dose: 2.25 mg/kg/injection, schedule: Q01DX Z (ip), vehicle: carboxymethylcellulose (CMC)): 112 % of control
- T/C (endpoint: mean survival time, dose: 2.5 mg/kg/injection, schedule: Q01DX Z (sc), vehicle: steriod suspending solution): 156 % of control
- T/C (endpoint: mean survival time, dose: 3.12 mg/kg/injection, schedule: Q01DX Z (oral), vehicle: steriod suspending solution): 114 % of control
- T/C (endpoint: mean survival time, dose: 3.6 mg/kg/injection, schedule: Q01DX Z (ip), vehicle: carboxymethylcellulose (CMC)): 109 % of control
- T/C (endpoint: mean survival time, dose: 4.5 mg/kg/injection, schedule: Q01DX Z (ip), vehicle: carboxymethylcellulose (CMC)): 109 % of control and 120 % of control
- T/C (endpoint: mean survival time, dose: 5.0 mg/kg/injection, schedule: Q01DX009 (ip), vehicle: saline): 118 % of control and 123 % of control
- T/C (endpoint: mean survival time, dose: 5.0 mg/kg/injection, schedule: Q01DX Z (sc), vehicle: steriod suspending solution): 160 % of control
- T/C (endpoint: mean survival time, dose: 5.7 mg/kg/injection, schedule: Q02DX010 (ip), vehicle: carboxymethylcellulose (CMC)): 121 % of control
- T/C (endpoint: mean survival time, dose: 6.0 mg/kg/injection, schedule: Q01DX Z (ip), vehicle: carboxymethylcellulose (CMC)): 119 % of control
- T/C (endpoint: mean survival time, dose: 6.2 mg/kg/injection, schedule: Q01DX Z (sc), vehicle: saline): 106 % of control and 113 % of control
- T/C (endpoint: mean survival time, dose: 6.25 mg/kg/injection, schedule: Q01DX Z (oral), vehicle: steriod suspending solution): 101 % of control
- T/C (endpoint: mean survival time, dose: 6.8 mg/kg/injection, schedule: Q02DX010 (ip), vehicle: saline): 122 % of control
- T/C (endpoint: mean survival time, dose: 8.0 mg/kg/injection, schedule: Q01DX Z (ip), vehicle: saline): 162 % of control
- T/C (endpoint: mean survival time, dose: 8.0 mg/kg/injection, schedule: Q01DX Z (sc), vehicle: other): 122 % of control
- T/C (endpoint: mean survival time, dose: 8.0 mg/kg/injection, schedule: Q01DX Z (sc), vehicle: saline): 115 % of control
- T/C (endpoint: mean survival time, dose: 9.0 mg/kg/injection, schedule: Q01DX Z (sc), vehicle: saline): 103 % of control
- T/C (endpoint: mean survival time, dose: 9.0 mg/kg/injection, schedule: Q02DX010 (ip), vehicle: carboxymethylcellulose (CMC)): 122 % of control
- T/C (endpoint: mean survival time, dose: 10.0 mg/kg/injection, schedule: Q01DX Z (sc), vehicle: steriod suspending solution): 156 % of control
- T/C (endpoint: mean survival time, dose: 12.0 mg/kg/injection, schedule: Q01DX Z (ip), vehicle: saline): 184 % of control
- T/C (endpoint: mean survival time, dose: 12.5 mg/kg/injection, schedule: Q01DX Z (oral), vehicle: steriod suspending solution): 157 % of control
- T/C (endpoint: mean survival time, dose: 13.0 mg/kg/injection, schedule: Q02DX010 (ip), vehicle: saline): 154 % of control
- T/C (endpoint: mean survival time, dose: 18.0 mg/kg/injection, schedule: Q01DX001 (ip), vehicle: saline): 124 % of control
- T/C (endpoint: mean survival time, dose: 18.0 mg/kg/injection, schedule: Q01DX Z (ip), vehicle: carboxymethylcellulose (CMC)): 177 % of control
- T/C (endpoint: mean survival time, dose: 18.0 mg/kg/injection, schedule: Q01DX Z (ip), vehicle: saline): 187 % of control
- T/C (endpoint: mean survival time, dose: 18.0 mg/kg/injection, schedule: Q01DX Z (sc), vehicle: other): 188 % of control
- T/C (endpoint: mean survival time, dose: 20.0 mg/kg/injection, schedule: Q01DX009 (ip), vehicle: saline): 158 % of control and 174 % of control
- T/C (endpoint: mean survival time, dose: 20.0 mg/kg/injection, schedule: Q02DX010 (ip), vehicle: other): 159 % of control
- T/C (endpoint: mean survival time, dose: 20.0 mg/kg/injection, schedule: Q02DX010 (ip), vehicle: saline): 160 % of control and 166 % of control
- T/C (endpoint: mean survival time, dose: 22.5 mg/kg/injection, schedule: Q02DX010 (ip), vehicle: saline): 152 % of control
- T/C (endpoint: mean survival time, dose: 24.0 mg/kg/injection, schedule: Q02DX010 (ip), vehicle: saline): 167 % of control
- T/C (endpoint: mean survival time, dose: 24.8 mg/kg/injection, schedule: Q01DX Z (oral), vehicle: saline): 112 % of control
- T/C (endpoint: mean survival time, dose: 27.0 mg/kg/injection, schedule: Q01DX Z (ip), vehicle: saline): 115 % of control
- T/C (endpoint: mean survival time, dose: 30.0 mg/kg/injection, schedule: Q02DX010 (ip), vehicle: other): 208 % of control
- T/C (endpoint: mean survival time, dose: 30.0 mg/kg/injection, schedule: Q02DX010 (ip), vehicle: saline): 154 % of control and 177 % of control
- T/C (endpoint: mean survival time, dose: 36.0 mg/kg/injection, schedule: Q01DX Z (ip), vehicle: carboxymethylcellulose (CMC)): 122 % of control
- T/C (endpoint: mean survival time, dose: 36.0 mg/kg/injection, schedule: Q02DX010 (ip), vehicle: saline): 211 % of control
- T/C (endpoint: mean survival time, dose: 40.0 mg/kg/injection, schedule: Q01DX009 (ip), vehicle: saline): 118 % of control and 88 % of control
- T/C (endpoint: mean survival time, dose: 40.0 mg/kg/injection, schedule: Q01DX Z (ip), vehicle: saline): 103 % of control
- T/C (endpoint: mean survival time, dose: 45.0 mg/kg/injection, schedule: Q01DX Z (ip), vehicle: carboxymethylcellulose (CMC)): 94 % of control
- T/C (endpoint: mean survival time, dose: 45.0 mg/kg/injection, schedule: Q02DX010 (ip), vehicle: saline): 108 % of control
- T/C (endpoint: mean survival time, dose: 56.0 mg/kg/injection, schedule: Q01DX Z (oral), vehicle: saline): 113 % of control and 114 % of control
- T/C (endpoint: mean survival time, dose: 67.0 mg/kg/injection, schedule: Q02DX010 (ip), vehicle: other): 101 % of control
- T/C (endpoint: mean survival time, dose: 67.0 mg/kg/injection, schedule: Q02DX010 (ip), vehicle: saline): 74 % of control
- T/C (endpoint: mean survival time, dose: 72.0 mg/kg/injection, schedule: Q01DX001 (ip), vehicle: saline): 188 % of control
- T/C (endpoint: mean survival time, dose: 80.0 mg/kg/injection, schedule: Q01DX Z (sc), vehicle: steriod suspending solution): 101 % of control
- T/C (endpoint: mean survival time, dose: 84.0 mg/kg/injection, schedule: Q01DX Z (oral), vehicle: saline): 101 % of control
- T/C (endpoint: mean survival time, dose: 160.0 mg/kg/injection, schedule: Q01DX Z (sc), vehicle: steriod suspending solution): 88 % of control
- T/C (endpoint: median survival time, dose: 0.75 mg/kg/injection, schedule: Q01DX009 (ip), vehicle: saline): 95 % of control
- T/C (endpoint: median survival time, dose: 1.5 mg/kg/injection, schedule: Q01DX009 (ip), vehicle: saline): 100 % of control and 110 % of control
- T/C (endpoint: median survival time, dose: 3.0 mg/kg/injection, schedule: Q01DX009 (ip), vehicle: saline): 100 % of control and 115 % of control
- T/C (endpoint: median survival time, dose: 5.0 mg/kg/injection, schedule: Q01DX009 (ip), vehicle: saline): 121 % of control
- T/C (endpoint: median survival time, dose: 6.3 mg/kg/injection, schedule: Q01DX017 (ip), vehicle: saline): 122 % of control
- T/C (endpoint: median survival time, dose: 10.0 mg/kg/injection, schedule: Q01DX009 (ip), vehicle: saline): 155 % of control
- T/C (endpoint: median survival time, dose: 12.0 mg/kg/injection, schedule: Q01DX009 (ip), vehicle: saline): 172 % of control
- T/C (endpoint: median survival time, dose: 12.5 mg/kg/injection, schedule: Q01DX017 (ip), vehicle: saline): 183 % of control and 194 % of control
- T/C (endpoint: median survival time, dose: 20.0 mg/kg/injection, schedule: Q01DX009 (ip), vehicle: saline): 233 % of control and 242 % of control
- T/C (endpoint: median survival time, dose: 24.0 mg/kg/injection, schedule: Q01DX009 (ip), vehicle: saline): 190 % of control
- T/C (endpoint: median survival time, dose: 40.0 mg/kg/injection, schedule: Q01DX009 (ip), vehicle: saline): 100 % of control and 121 % of control

SMILES: O=C1CCC2CC1CCC2=O
- T/C (endpoint: mean survival time, dose: 18.75 mg/kg/injection, schedule: Q01DX009 (ip), vehicle: Klucel (hydroxypropylcellulose) (HPC)): 101 % of control
- T/C (endpoint: mean survival time, dose: 18.75 mg/kg/injection, schedule: Q04DX003 (ip), vehicle: Klucel (hydroxypropylcellulose) (HPC)): 101 % of control
- T/C (endpoint: mean survival time, dose: 37.5 mg/kg/injection, schedule: Q01DX009 (ip), vehicle: Klucel (hydroxypropylcellulose) (HPC)): 101 % of control
- T/C (endpoint: mean survival time, dose: 37.5 mg/kg/injection, schedule: Q04DX003 (ip), vehicle: Klucel (hydroxypropylcellulose) (HPC)): 97 % of control
- T/C (endpoint: mean survival time, dose: 75.0 mg/kg/injection, schedule: Q01DX009 (ip), vehicle: Klucel (hydroxypropylcellulose) (HPC)): 98 % of control
- T/C (endpoint: mean survival time, dose: 75.0 mg/kg/injection, schedule: Q04DX003 (ip), vehicle: Klucel (hydroxypropylcellulose) (HPC)): 97 % of control
